Earlier results, collected in patent publication US20070009938A1, “Minimalist bZIP derivatives that bind to noncanonical gene regulatory sequences” (priority 2005, published 2007).

Tests used:
AP-1 site = details: previously shown, Lajmi et al. 2000
CRE (ATF/CREB) site = details: previously shown, Lajmi et al. 2000

Row | binding to AP-1 site, DNase I footprinting (AP-1 site) | binding to CRE (ATF/CREB) site, DNase I footprinting (CRE (ATF/CREB) site) | Substance
1 | bind | bind | 4A: alanine-rich derivative of wt bZIP with four Ala substitutions in the GCN4 basic region (SEQ ID NO:3) (ARAAAARARNTAAARRSRARKLQRMKQ; basic region 4A bZIP mutant peptide)
2 | bind | bind | 11A: alanine-rich derivative of wt bZIP with eleven Ala substitutions in the basic region, also mutated in the hinge (SEQ ID NO:4) (ARAAAARARNTAAARRSRAAKAAAAAA; basic region 11A bZIP mutant peptide)
3 | bind | bind | 18A: alanine-rich derivative of wt bZIP; 24 of the 27 basic-region residues are alanine (SEQ ID NO:5) (AAAAAAAAANAAAAAAARAAKAAAAAA; basic region 18A bZIP mutant peptide)
